# Reference: patent US20070010438A1, “Tumor treatment using beta-sheet peptides and radiotherapy” (priority 2005, published 2007)
# How the values were obtained:
# EC = EC proliferation, 3[H]thymidine incorporation assay (Table 3); assay type: cell-based, human
# Procedure: EC proliferation was measured using a ^3[H]thymidine incorporation assay. EC were seeded in flatbottomed 96-well tissue culture plates (5000 cells/well) and grown for 3 days, in culture medium. In some cultures the proliferation of EC was enhanced by incubation with 10 ng/ml bFGF. During the last 6 hours of the assay, the culture was pulsed with 0.5 μCi [methyl-3 H]thymidine/well. Results are expressed as the arithmetic mean counts per minute (cpm) of triplicate cultures.
# [1] = test system: intercellular adhesion molecule-1 (ICAM-1); experiment: ICAM-1 expression on bFGF-treated EC (flow cytometry, Northern blot); assay type: cell-based, human; conditions: for bFGF mediated downregulation of ICAM-1: 100 μg/ml added simultaneously with 10 ng/ml bFGF, 3 days
# Procedure: In a first series of experiments, PF4 and βpep peptides were tested for their ability to prevent bFGF (fibroblast growth factor) mediated downregulation of ICAM-1. […] Simultaneously 100 μg/ml of each PF4, βpep-14, βpep-16, or medium was added. Mean ICAM-1 fluorescence intensity values were determined.
# Since the in vivo situation of tumor-associated EC involves the low expression or even absence of ICAM-1, the next set of experiments aimed to study the ability to re-induce ICAM-1 expression after bFBF preincubation. […] In these experiments, HUVEC were pretreated for 3 days with bFGF, subsequently PF4 was added for 3 days and, where indicated in the last 16 hours of culture 4 ng/ml TNF(X was added. Human umbilical vein derived endothelial cells (HUVEC) were harvested from normal human umbilical cords by perfusion with 0.125% trypsin/EDTA. Cells were cultured in fibronectin (FN) coated tissue culture flasks in culture medium (RPMI-1640 with 20% human serum (HS), supplemented with 2 mM glutamine and 100 U/ml penicillin and 0.1 mg/ml streptomycin). Immunofluorescence using indirect PE-conjugated reagents required three separate incubations. 1×10^5 EC were fixed for 1 hour in 1% paraformaldehyde, resuspended in 20 μl appropriately diluted Mab and incubated for 1 hour on ice. Subsequently, cells were washed two times in PBS/BSA (0.1%) and incubated for another 30 minutes with biotinylated rabbit-anti-mouse Ig (Dako, Glostrup, Denmark). After another 2 washings, cells were incubated with streptavidin-phycoerythrin conjugate (Dako). Stained cells were analyzed on a FACScan flowcytometer. Data analysis was performed using PCLysys software (Becton Dickinson, Mountain View, Calif.). Statistical significance of observed differences was determined using the Student's t-test.
# The anergy of EC to stimulation with inflammatory cytokines was the subject of additional experiments. For these experiments, HUVEC (human vascular endothelial cells) were pretreated with 10 ng/ml bFGF for 3 days. Subsequently, cells are subcultured for 3 days with […] in the presence of PF4. For the last 16 hours of the culture 4 ng/ml TNF-α was added to induce upregulation of ICAM-1. […] The regulation of ICAM-1 at the protein level was confirmed in Northern blot analysis for detection of ICAM-1 message. In these experiments, HUVEC were cultured for 3 days with bFGF and treated for the last 4 and 24 hours with PF4 (100 μg/ml). TNF-α was added 2 hours before isolation of RNA. RNA from a subconfluent EC cultures (75 cm^2 Petri-dishes) incubated with bFGF for different time-points was isolated using an RNA-zol kit (Campro Scientific, Houston, Tex.). Total RNA (10 μg) for each sample was separated in a 0.8% formaldehyde-denaturing gel, transferred to nitrocellulose (Hybond N+, Amersham International, Amersham, UK) and hybridized to a ^32P-labelled 1.9 Kb c-DNA probe, containing the functional sequence of the human ICAM-1 gene (a gift from Dr. B. Seed). Membranes were washed at a high stringency in 0.2×SSC, 0.1% SDS at 50° C. for 1 hour. Filters were exposed to X-ray films (Kodak X-omat, Eastman Kodak Company, Rochester, N.Y.) using an intensifying screen at −80° C. for not less than 12 hours. Autoradiograms were subjected to scanning using a laser densitometer (Model GS670, Bio-Rad, Hercules, Calif.) and data were analysed with the Molecular Analyst PCTM software. The intensity of the major ICAM-1 mRNA transcript was normalized with respect to actin mRNA expression used as a control.
# [2] = test system: endothelial cell (FBHEC, HUVEC)
# Procedure: β-sheet peptides βpep 1-24 were tested in an endothelial cell proliferation assay using ^3H-thymidine incorporation.
# HUVEC = conditions: PF4 100 μg/ml, bFGF 10 ng/ml
# Procedure: Functional impact for the observed phenomena was provided by leukocyte/EC adhesion assays as described earlier (Griffloen et al. Cancer Res. 56, 1111-1117 (1996)). […] PHA-activated peripheral blood T lymphocyte were adhered for 1 hour at 37° C. to TNF-α (4 ng/ml), bFGF (10 ng/ml) and PF4 (100 μg/ml) treated, or control (HUVEC). Non-adhering cells were removed and adhered cells were enumerated by an inverted microscope. Values of one representative experiment out of three are expressed as numbers of adhered cells per high power field. Statistical significance is determined by the Student's t-test.
# SCK tumors = experiment: Radiosensitization test of SCK tumors, i.p. injections plus 10 Gy on days 0 and 1
# Procedure: On days 0 and 1 the injections were given 2 hours prior to tumor irradiation (10 Gy each day) (Mauceri et al., Nature 394, 287-91 (1998)).
# Tumor volume was determined by measuring the diameters of the tumor using metric-scale calipers (Scienceware; Pequannock, N.J.) and solving the equation to determine the volume of a spheroid: (a^2×b×Π)/6, where ‘a’ is the width and ‘b’ is the length of the tumor.
# Growth delay was calculated by subtracting the average time for control tumors to grow three-fold in volume from the time required for treated tumors to increase in volume by 3-fold from the day of radiation.
# [3] = second expt 2, 1 μg/ml, 10 ng/ml bFGF, medium 52808 ± 4092
# [4] = second expt 2, 1 μg/ml, no bFGF, medium 6780 ± 713
# [5] = second expt 2, 10 μg/ml, 10 ng/ml bFGF, medium 52808 ± 4092
# [6] = second expt 2, 10 μg/ml, no bFGF, medium 6780 ± 713
# [7] = second expt 2, 100 μg/ml, 10 ng/ml bFGF, medium 52808 ± 4092
# [8] = second expt 2, 100 μg/ml, no bFGF, medium 6780 ± 713
# [9] = first expt 2, 1 μg/ml, 10 ng/ml bFGF, medium 29079 ± 2506
# [10] = first expt 2, 1 μg/ml, no bFGF, medium 14296 ± 2490
# [11] = first expt 2, 10 μg/ml, 10 ng/ml bFGF, medium 29079 ± 2506
# [12] = first expt 2, 10 μg/ml, no bFGF, medium 14296 ± 2490
# [13] = first expt 2, 100 μg/ml, 10 ng/ml bFGF, medium 29079 ± 2506
# [14] = first expt 2, 100 μg/ml, no bFGF, medium 14296 ± 2490
compound,measurement,setting,value
"O=C1CCC(N2C(=O)c3ccccc3C2=O)C(=O)N1 (stereo not shown) [thalidomide, reference compound]",EC growth in vitro,EC,do not affect EC growth in vitro
same,"effect on ICAM-1 expression, other inhibitors of angiogenesis",[1],did not affect ICAM-1 expression
ANIKLSVEMKLFKRHLKWKIIVKLNDGRELSLD [βpep-8],cell proliferation activity (control of endothelial cell proliferation),[2],little cell proliferation activity
Platelet Factor 4 [PF4],"EC proliferation, (3H)-thymidine incorporation","EC; expt 1, 1 μg/ml, 10 ng/ml bFGF, medium 28815 ± 1007",28782 ± 815 cpm
same,"EC proliferation, (3H)-thymidine incorporation","EC; expt 1, 1 μg/ml, no bFGF, medium 4044 ± 206",4656 ± 456 cpm
same,"EC proliferation, (3H)-thymidine incorporation","EC; expt 1, 10 μg/ml, 10 ng/ml bFGF, medium 28815 ± 1007",23868 ± 402 cpm
same,"EC proliferation, (3H)-thymidine incorporation","EC; expt 1, 10 μg/ml, no bFGF, medium 4044 ± 206",4066 ± 351 cpm
same,"EC proliferation, (3H)-thymidine incorporation","EC; expt 1, 100 μg/ml, 10 ng/ml bFGF, medium 28815 ± 1007",4655 ± 421 cpm
same,"EC proliferation, (3H)-thymidine incorporation","EC; expt 1, 100 μg/ml, no bFGF, medium 4044 ± 206",1651 ± 172 cpm
same,"EC proliferation, (3H)-thymidine incorporation",EC; [3],43524 ± 5318 cpm
same,"EC proliferation, (3H)-thymidine incorporation",EC; [4],6171 ± 1227 cpm
same,"EC proliferation, (3H)-thymidine incorporation",EC; [5],8337 ± 704 cpm
same,"EC proliferation, (3H)-thymidine incorporation",EC; [6],3547 ± 317 cpm
same,"EC proliferation, (3H)-thymidine incorporation",EC; [7],1654 ± 375 cpm
same,"EC proliferation, (3H)-thymidine incorporation",EC; [8],947 ± 170 cpm
same,bFGF mediated downregulation of ICAM-1,[1],did not result in the loss of ICAM-1 expression
same,expression of ICAM-1,[1]; 100 μg/ml alone,enhanced the expression of ICAM-1
same,re-induction of ICAM-1 expression after bFGF preincubation,"[1]; HUVEC pretreated 3 days with bFGF, then 100 μg/ml for 3 days in the presence of bFGF",reinduction of ICAM-1
same,decreased inflammatory response (TNF-α induced ICAM-1) of angiogenic stimulated EC,"[1]; bFGF-pretreated HUVEC, 4 ng/ml TNF-α for the last 16 hours",overcome
same,bFGF mediated inhibition of leukocyte adhesion to cultured HUVEC,HUVEC,completely abolished
SIQDLNVSMKLFRKQAKWKIIAKLNDGRELSLD [βpep-16],angiostatic as determined by EC proliferation in vitro,EC,angiostatic
same,"EC proliferation, (3H)-thymidine incorporation",EC; [9],35447 ± 2621 cpm
same,"EC proliferation, (3H)-thymidine incorporation",EC; [10],15039 ± 2020 cpm
same,"EC proliferation, (3H)-thymidine incorporation",EC; [11],33663 ± 2572 cpm
same,"EC proliferation, (3H)-thymidine incorporation",EC; [12],11881 ± 2545 cpm
same,"EC proliferation, (3H)-thymidine incorporation",EC; [13],7852 ± 875 cpm
same,"EC proliferation, (3H)-thymidine incorporation",EC; [14],4929 ± 749 cpm
same,"EC proliferation, (3H)-thymidine incorporation",EC; [3],47727 ± 447 cpm
same,"EC proliferation, (3H)-thymidine incorporation",EC; [4],7450 ± 737 cpm
same,"EC proliferation, (3H)-thymidine incorporation",EC; [5],44919 ± 2081 cpm
same,"EC proliferation, (3H)-thymidine incorporation",EC; [6],6148 ± 1370 cpm
same,"EC proliferation, (3H)-thymidine incorporation",EC; [7],27071 ± 3277 cpm
same,"EC proliferation, (3H)-thymidine incorporation",EC; [8],2669 ± 370 cpm
same,bFGF mediated downregulation of ICAM-1,[1],complete block of bFGF-mediated downregulation
SIQDLNVSMKLFRKQAKWKLIVKLNDGRELSLD [βpep-14],angiostatic as determined by EC proliferation in vitro,EC,angiostatic
same,"EC proliferation, (3H)-thymidine incorporation",EC; [9],28695 ± 1062 cpm
same,"EC proliferation, (3H)-thymidine incorporation",EC; [10],14184 ± 1775 cpm
same,"EC proliferation, (3H)-thymidine incorporation",EC; [11],29530 ± 1608 cpm
same,"EC proliferation, (3H)-thymidine incorporation",EC; [12],9886 ± 2114 cpm
same,"EC proliferation, (3H)-thymidine incorporation",EC; [13],6585 ± 132 cpm
same,"EC proliferation, (3H)-thymidine incorporation",EC; [14],3774 ± 299 cpm
same,"EC proliferation, (3H)-thymidine incorporation",EC; [3],48443 ± 2700 cpm
same,"EC proliferation, (3H)-thymidine incorporation",EC; [4],7214 ± 1668 cpm
same,"EC proliferation, (3H)-thymidine incorporation",EC; [5],52126 ± 1258 cpm
same,"EC proliferation, (3H)-thymidine incorporation",EC; [6],6074 ± 899 cpm
same,"EC proliferation, (3H)-thymidine incorporation",EC; [7],7663 ± 715 cpm
same,"EC proliferation, (3H)-thymidine incorporation",EC; [8],1062 ± 325 cpm
same,bFGF mediated downregulation of ICAM-1,[1],complete block of bFGF-mediated downregulation
SIQFLKVSLNLDRKQAKWKIIVKLNDGRELSLD [βpep-24],cell proliferation activity (control of endothelial cell proliferation),[2],very good at controlling cell proliferation
angiostatin,complete responses,SCK tumors; angiostatin 25 or 50 mg/kg i.p. combined with 10 Gy days 0 and 1,nor did it induce any complete responses
same,delay in tumor growth,"SCK tumors; angiostatin 25 or 50 mg/kg i.p. days -1, 0, 1 combined with 10 Gy days 0 and 1",did not result in any significant delay in tumor growth
interferon-γ inducible protein-10 [IP-10],"EC proliferation, (3H)-thymidine incorporation","EC; expt 3, 100 μg/ml, 10 ng/ml bFGF, medium 3432 ± 232",725 ± 95 cpm
same,"effect on ICAM-1 expression, other inhibitors of angiogenesis",[1],the same results
thrombospondin-1 [TSP-1],"EC proliferation, (3H)-thymidine incorporation","EC; expt 4, 10 μg/ml, 10 ng/ml bFGF, medium 31954 ± 1220",22338 ± 860 cpm
same,"EC proliferation, (3H)-thymidine incorporation","EC; expt 4, 10 μg/ml, no bFGF, medium 18904 ± 1501",8865 ± 639 cpm
same,"EC proliferation, (3H)-thymidine incorporation","EC; expt 4, 25 μg/ml, 10 ng/ml bFGF, medium 31954 ± 1220",10267 ± 797 cpm
same,"EC proliferation, (3H)-thymidine incorporation","EC; expt 4, 25 μg/ml, no bFGF, medium 18904 ± 1501",5565 ± 349 cpm
same,"effect on ICAM-1 expression, other inhibitors of angiogenesis",[1],the same results
